Here are results for 9 compounds from US10548318B2, “N-(tetrazol-5-yl)- and N-(triazol-5-yl)arylcarboxamide derivatives with herbicidal action” (Bayer CropScience Aktiengesellschaft, priority 2015, dated 2020).

Bounds are passed on as bounds.

Common to all, as to type: in vivo
Assay [1] relates to Stellaria media. Kind of assay: Pre-emergence herbicidal action against harmful plants. To be noted: 504 h, application rate 320 g/ha, visual scoring after 3 weeks vs untreated controls, read-out: herbicidal activity in percent against Stellaria media. From the text:
(§1) Seeds of monocotyledonous and dicotyledonous weed plants and crop plants are laid out in wood-fiber pots in sandy loam and covered with soil. The compounds of the invention, formulated in the form of wettable powders (WP) or as emulsion concentrates (EC), are then applied to the surface of the covering soil in the form of an aqueous suspension or emulsion at a water application rate equating to 600 to 800 I/ha, with addition of 0.2% wetting agent. After the treatment, the pots are placed in a greenhouse and kept under good growth conditions for the trial plants. The damage to the test plants is scored visually after a test period of 3 weeks by comparison with untreated controls (herbicidal activity in percent (%): 100% activity=the plants have died, 0% activity=like control plants). Here, for example, the compounds Nos. 1-384, 1-390, 3-384, 5-384, 19-384, 9-390, 21-384, 23-384 and 28-390, at an application rate of 320 g/ha, each show an activity of at least 80% against Stellaria media and Amaranthus retroflexus.

The test system of the next assay is Amaranthus retroflexus. Described as above. To be noted: 504 h, application rate 320 g/ha, visual scoring after 3 weeks vs untreated controls, read-out: herbicidal activity in percent against Amaranthus retroflexus.
Text: as §1

A further assay concerns Veronica persica. The assay is described as follows: Post-emergence herbicidal action against harmful plants. To be noted: 504 h, application rate 80 g/ha, visual assessment after about 3 weeks vs untreated controls, read-out: herbicidal action in percent against Veronica persica. The procedure:
(§2) Seeds of monocotyledonous and dicotyledonous weed and crop plants are laid out in sandy loam soil in wood-fiber pots, covered with soil and cultivated in a greenhouse under good growth conditions. 2 to 3 weeks after sowing, the test plants are treated at the one-leaf stage. The compounds of the invention, formulated in the form of wettable powders (WP) or as emulsion concentrates (EC), are then sprayed onto the green parts of the plants in the form of an aqueous suspension or emulsion at a water application rate equating to 600 to 800 I/ha, with addition of 0.2% wetting agent. After the test plants have been left to stand in the greenhouse under optimal growth conditions for about 3 weeks, the action of the preparations is assessed visually in comparison to untreated controls (herbicidal action in percent (%): 100% activity=the plants have died, 0% activity=like control plants). Here, for example, the compounds Nos. 1-384, 1-390, 3-384, 5-384, 19-384, 9-390, 21-384, 23-384, 28-390 and 32-384, at an application rate of 80 g/ha, each show an activity of at least 80% against Stellaria media and Veronica persica.

Assay [2] relates to Stellaria media. The description is as above. Particulars: 504 h, application rate 80 g/ha, visual assessment after about 3 weeks vs untreated controls, read-out: herbicidal action in percent against Stellaria media. The procedure: as §2
In assay [3] the test system is Polygonum convolvulus (POLCO). Kind of assay: Comparative experiment in pre-emergence. To be noted: dosage 320 g/ha.
Text: as §1
For comparative purposes, the herbicidal activity of some compounds according to the invention and the most structurally similar compounds known from the prior art were tested.

`CCOC(=O)OC(C)n1nnn(C)c1=NC(=O)c1ccc(C(F)(F)F)c(SC)c1Cl` (stereo not shown) [No. 1-384, 1-(5-{[2-chloro-3-(methylsulfanyl)-4-(trifluoromethyl)benzoyl]imino}-4-methyl-4,5-dihydro-1H-tetrazol-1-yl)ethyl ethyl carbonate]: the pest or weed control at 320 g/ha in the assay with Stellaria media [1] and with Amaranthus retroflexus was at least 80% in each case. Besides, the pest or weed control at 80 g/ha with Veronica persica and with Stellaria media [2] was at least 80% throughout.

With `CCOC(=O)OC(C)n1nnn(C)c1=NC(=O)c1ccc(C)c(S(C)(=O)=O)c1Cl` (stereo not shown) [No. 1-390, 1-(5-{[2-chloro-4-methyl-3-(methylsulfonyl)benzoyl]imino}-4-methyl-4,5-dihydro-1H-tetrazol-1-yl)ethyl ethyl carbonate], the pest or weed control at 320 g/ha with Stellaria media [1] and with Amaranthus retroflexus was at least 80% in each case. The “Herbicidal activity against POLCO” value in assay [3] amounted to 100%. For the same compound, the pest or weed control at 80 g/ha in the assay on Veronica persica and with Stellaria media [2] was at least 80% throughout.

With `COC(=O)OC(C)n1nnn(C)c1=NC(=O)c1ccc(C(F)(F)F)c(SC)c1Cl` (stereo not shown) [No. 3-384, 1-(5-{[2-chloro-3-(methylsulfanyl)-4-(trifluoromethyl)benzoyl]imino}-4-methyl-4,5-dihydro-1H-tetrazol-1-yl)ethyl methyl carbonate], the pest or weed control at 320 g/ha in the assay on Stellaria media [1] and in the assay with Amaranthus retroflexus was at least 80% in each case. In addition, the pest or weed control at 80 g/ha in the assay on Veronica persica and in the assay with Stellaria media [2] was at least 80% in each case.

As for `CSc1c(C(F)(F)F)ccc(C(=O)N=c2n(C)nnn2C(C)OC(=O)OC2CCCCC2)c1Cl` (stereo not shown) [No. 5-384, 1-(5-{[2-chloro-3-(methylsulfanyl)-4-(trifluoromethyl)benzoyl]imino}-4-methyl-4,5-dihydro-1H-tetrazol-1-yl)ethyl cyclohexyl carbonate], the pest or weed control at 320 g/ha with Stellaria media [1] and with Amaranthus retroflexus was at least 80% in each case. Also, the pest or weed control at 80 g/ha with Veronica persica and in the assay with Stellaria media [2] was at least 80% throughout.

Take `CCOC(=O)OC(C)OC(=Nc1nnnn1C)c1ccc(C(F)(F)F)c(SC)c1Cl` (stereo not shown) [No. 19-384, 1-[(ethoxycarbonyl)oxy]ethyl 2-chloro-3-(methylsulfanyl)-N-(1-methyl-1H-tetrazol-5-yl)-4-(trifluoromethyl)benzenecarboximidate]: the pest or weed control at 320 g/ha in the assay with Stellaria media [1] and in the assay on Amaranthus retroflexus was at least 80% throughout. For the same compound, the pest or weed control at 80 g/ha in the assay on Veronica persica and in the assay on Stellaria media [2] was at least 80% each time.

With `CCOC(=O)OC(C)OC(=Nc1nnnn1C)c1ccc(C)c(S(C)(=O)=O)c1Cl` (stereo not shown) [No. 19-390, 1-[(ethoxycarbonyl)oxy]ethyl 2-chloro-4-methyl-3-(methylsulfonyl)-N-(1-methyl-1H-tetrazol-5-yl)benzenecarboximidate], in assay [3], the “Herbicidal activity against POLCO” value came to 100%.

For `COC(=O)OC(C)OC(=Nc1nnnn1C)c1ccc(C(F)(F)F)c(SC)c1Cl` (stereo not shown) [No. 21-384, 1-[(Methoxycarbonyl)oxy]ethyl 2-chloro-3-(methylsulfanyl)-N-(1-methyl-1H-tetrazol-5-yl)-4-(trifluoromethyl)benzenecarboximidate], the pest or weed control at 320 g/ha in the assay on Stellaria media [1] and in the assay on Amaranthus retroflexus was at least 80% throughout. In addition, in assay [3], the “Herbicidal activity against POLCO” value stood at 100%. Further, the pest or weed control at 80 g/ha in the assay with Veronica persica and in the assay on Stellaria media [2] was at least 80% each time.

Consider `CSc1c(C(F)(F)F)ccc(C(=Nc2nnnn2C)OC(C)OC(=O)OC2CCCCC2)c1Cl` (stereo not shown) [No. 23-384, 1-{[(cyclohexyloxy)carbonyl]oxy}ethyl 2-chloro-3-(methylsulfanyl)-N-(1-methyl-1H-tetrazol-5-yl)-4-(trifluoromethyl)benzenecarboximidate], for which the pest or weed control at 320 g/ha in the assay with Stellaria media [1] and in the assay with Amaranthus retroflexus was at least 80% in each case. In assay [3], the “Herbicidal activity against POLCO” value turned out to be 90%. Further, the pest or weed control at 80 g/ha in the assay with Veronica persica and with Stellaria media [2] was at least 80% in each case.

For the compound `CCOC(=O)OC(C)N(C(=O)c1ccc(C)c(S(C)(=O)=O)c1Cl)c1nnnn1C` (stereo not shown) [No. 28-390, 1-{[2-chloro-4-methyl-3-(methylsulfonyl)benzoyl](1-methyl-1H-tetrazol-5-yl)amino}ethyl ethyl carbonate], the pest or weed control at 320 g/ha in the assay with Stellaria media [1] and in the assay with Amaranthus retroflexus was at least 80% each time. In assay [3], the “Herbicidal activity against POLCO” value is recorded as 90%. Also, the pest or weed control at 80 g/ha in the assay on Veronica persica and in the assay on Stellaria media [2] was at least 80% in each case.
